Results taken from PMC8143069 (Cell Discovery, 2021).
“Also recorded” adds a separate entry of the source. Structures can show the parent of a compound that is named as a salt. Where two headings read alike, the source gives them in different places. Where no end group is shown, it is not given here. [ ]: non-standard residue; d: D form. Lys(Me2) = CN(C)CCCC[C@H](N)C(=O)O

Key:
human recombinant LSD1 [1] = assay: LSD1 demethylation assay with di-methylated ACE2 peptides as substrates; assay type: biochemical; conditions: for Demethylation of NLS peptides by LSD1 (rank order): LSD1 fluorimetric kit, background subtracted, one-way ANOVA P < 0.0001 (Fig. 4d)
COVID-19 = conditions: cited from earlier work
[2] = tested on: SARS-CoV-2 spike protein at Caco-2 cell surface; assay type: cell-based
Caco-2 cells [3] = tested on: Caco-2 cells
[4] = tested on: ACE2-SARS-CoV-2 spike protein interaction, Caco-2 cells; assay type: cell-based, human / SARS-CoV-2
SARS-CoV-2 [5] = assay type: cell-based
[6] = tested on: SARS-CoV-2-infected Caco-2 cells; assay type: cell-based, human / SARS-CoV-2
LSD1 = conditions: cited from earlier work
human recombinant LSD1 [7] = assay type: biochemical
[8] = tested on: ACE2 (pan-methylation lysine), Caco-2 cells; assay type: cell-based, human
Caco-2 cells [9] = tested on: Caco-2 cells; remark: listed apart in the source
SARS-CoV-2 [10] = assay type: cell-based; remark: listed apart in the source
[11] = tested on: SARS-CoV-2-infected Caco-2 cells; assay type: cell-based, human
[12] = tested on: ACE2-IMPα3 colocalization, SARS-CoV-2-infected Caco-2 cells; assay type: cell-based, human
[13] = tested on: SARS-CoV-2-infected Caco-2 cells; assay type: cell-based, human; remark: listed apart in the source
[14] = tested on: SARS-CoV-2-S-driven entry, Caco-2 cells; conditions: cited from earlier work
ACE2, Caco-2 cells = assay type: cell-based, human; conditions: Caco-2, FAM5-tagged NACE2i, single treatment, after 8 h and up to 96 h; P < 0.0001 (Fig. 5b)
Caco-2 cells [15] = assay type: physicochemical, human; conditions: FAM5-tagged peptide, single treatment, Caco-2 culture, over 96 h, fluorescence imaging
SARS-CoV-2 [16] = conditions: cited from earlier work
[17] = tested on: T cells in human breast cancer; conditions: cited from earlier work
[18] = tested on: nuclear LSD1/CoREST complex; conditions: cited from earlier work

For TGIRDRK[Lys(Me2)]KNKARS [PEP2], the “Demethylation of NLS peptides by LSD1 (rank order)” value (“Demethylation of NLS peptides” for short) (human recombinant LSD1 [1]) was “followed by PEP3, PEP2, and PEP1”.

In the case of tocilizumab, the “clinical outcome in COVID-19” value (COVID-19) is given as “mixed results in clinical studies”.

For QAKTFLD[Lys(Me2)]FNHEAED [ACE2me2], the “Demethylation of peptide by LSD1 (substrate)” value (human recombinant LSD1 [1]; ACE2me2 peptide, lysine 31, fluorescence) was “efficiently de-methylated”.

For TGIRDRKK[Lys(Me2)]NKARS [PEP3], the “Demethylation of NLS peptides” value (human recombinant LSD1 [1]) was “followed by PEP3, PEP2, and PEP1”.

In the case of `O=C(O)c1ccc(CN2CCC(CN[C@@H]3C[C@H]3c3ccccc3)CC2)cc1` [GSK, GSK2879552], the “spike protein expression at the cell surface” value [2] is reported as “to a greater extent GSK treatment, reduced spike protein expression at the cell surface of infected cells”, the cell viability (Caco-2 cells [3]; uninfected Caco-2, up to 72 h, n=3 (Fig. S2d)) is reported as greater than 90% and the “ACE2/spike interaction at cell surface (PLA)” value [4] is reported as “significantly decreased interaction”. For the same molecule, the “inhibition of viral RNA in infected cells (comparison)” value (SARS-CoV-2 [5]) was “greatest inhibition of viral RNA in infected cells”, the “viral load, % virus-aligned reads over total reads” value (SARS-CoV-2 [5]) was 1% and the “SARS-CoV-2 spike protein expression” value [6] was “decreased SARS-CoV-2 spike protein expression”. The “co-localization of ACE2 and SARS-CoV-2 spike protein” value [6] was “significantly reduced the co-localization of ACE2 and SARS-CoV-2 spike protein”, the “inhibition of LSD1 catalytic activity (compared with phenelzine)” value (LSD1) was “significantly more potent inhibitor of LSD1 catalytic activity than phenelzine” and the “ACE2 lysine 31 (ACE2me2 peptide) demethylation” value (human recombinant LSD1 [7]) was “further decreases were observed”. For the same molecule, the “association between ACE2 and pan-methylation lysine antibody (PLA)” value [8] was “increased the association between ACE2 and pan-methylation lysine antibody in infected cells”, the cell proliferation (Caco-2 cells [9]) was “neither altered cell proliferation” and the “viral RNA levels in culture supernatants” value (SARS-CoV-2 [10]) was “negligibly reduced viral RNA levels in culture supernatants”. The “enriched Reactome pathways vs control” value [11] was “downregulated genes enriched in the IFN pathway”, the “number of differentially expressed genes vs control” value [11] was 73 DEGs and the IMPα3 nuclear expression [12] was “no effect on IMPα3 nuclear expression”. For the same molecule, the “co-localization of ACE2 and IMPα3 (PCC)” value [12] was “minimal effect”, the “LSD1, ACE2, and TMPRSS2 transcript” value [13] was “remained unaltered” and the “RIG1, MDA5, and ISG15 mRNA” value [13] was “remained unaltered”.

In the case of `CN(C)C(=O)COC(=O)Cc1ccc(OC(=O)c2ccc(NC(=N)N)cc2)cc1` [camostat mesylate], the SARS-CoV-2-S-driven entry [14] is given as “partially blocked SARS-CoV-2-S-driven entry into Caco-2 cells”.

For `CCN(CCO)CCCC(C)Nc1ccnc2cc(Cl)ccc12` (stereo not shown) [hydroxychloroquine], the “clinical outcome in COVID-19” value (COVID-19) is given as “lack of effect or even increased harm”.

In the case of `N[C@@H]1C[C@H]1c1ccccc1` (racemic) [tranylcypromine], the “ACE2 lysine 31 (ACE2me2 peptide) demethylation” value (human recombinant LSD1 [7]) is reported as “significantly decreased ACE2 lysine 31 demethylation”.

With “TGIRDRKKKNKARS-(FAM5) [FAM5-tagged NACE2i]” the “nuclear ACE2 expression over time” value (ACE2, Caco-2 cells) was “significantly inhibited nuclear ACE2 expression after 8 h and up to 96 h” and the peptide stability (Caco-2 cells [15]) was “stable over time”.

In the case of TGIRDR[Lys(Me2)]KKNKARS [PEP1], the “Demethylation of NLS peptides” value (human recombinant LSD1 [1]) is reported as “followed by PEP3, PEP2, and PEP1”.

In the case of ivermectin, the SARS-CoV-2 replication (SARS-CoV-2 [16]) is given as “inhibits SARS-CoV-2 replication”.

With `C/C(=N\NC(=O)c1cccc(S(=O)(=O)N2CCOCC2)c1)c1cc(Cl)ccc1O` [SP2509] the “ACE2 lysine 31 (ACE2me2 peptide) demethylation” value (human recombinant LSD1 [7]; LSD1 incubated with inhibitor 30 min at room temperature, LSD1 fluorimetric kit, 40 s intervals, one-way ANOVA P < 0.0001 (Fig. 2a)) was “showed the highest inhibitory potency of all the LSD1 inhibitors in vitro”.

In the case of `NNCCc1ccccc1` [phenelzine], the T cell responses [17] is given as “epigenetically restore T cell responses in human breast cancer”, the “spike protein expression at the cell surface” value [2] is given as “reduced spike protein expression at the cell surface of infected cells” and the cell viability (Caco-2 cells [3]) is given as greater than 90%. For the same molecule, the “SARS-CoV-2 spike protein expression” value [6] was “decreased SARS-CoV-2 spike protein expression”, the “co-localization of ACE2 and SARS-CoV-2 spike protein” value [6] was “significantly reduced the co-localization of ACE2 and SARS-CoV-2 spike protein” and the “disruption of nuclear LSD1/CoREST complex” value [18] was “can disrupt the nuclear LSD1/CoREST complex”. The cell proliferation (Caco-2 cells [9]) was “neither altered cell proliferation”, the “viral RNA levels in culture supernatants” value (SARS-CoV-2 [10]) was “negligibly reduced viral RNA levels in culture supernatants” and the “DUSP1, DUSP6, DUPS8 expression” value [11] was “highly upregulated”. For the same molecule, the IRF7 gene expression [11] was “upregulation of IRF7 gene expression”, the “enriched Reactome pathways vs control” value [11] was “translation and MAPK pathways were enriched; also recorded: post-transcriptional protein phosphorylation and amino acid synthesis and interconversion (transamination) processes were significantly enriched; also recorded: regulates MAPK signaling-related pathways” and the “number of differentially expressed genes vs control” value [11] was 1059 DEGs. For the same molecule, the IMPα3 nuclear expression [12] was “no effect on IMPα3 nuclear expression”, the “co-localization of ACE2 and IMPα3 (PCC)” value [12] was “minimal effect” and the “IFNβ and OASL expression” value [13] was “further increased”. For the same molecule, the “LSD1, ACE2, and TMPRSS2 transcript” value [13] was “remained unaltered” and the “RIG1, MDA5, and ISG15 mRNA” value [13] was “remained unaltered”.

For TGIRDR[Lys(Me2)]K[Lys(Me2)]NKARS [PEP4], the “Demethylation of NLS peptides” value (human recombinant LSD1 [1]) was “greatest demethylation”.

B1: sarilumab (antibody, chains of the INN, looked up, V domains shown)
VH: EVQLVESGGGLVQPGRSLRLSCAASRFTFDDYAMHWVRQAPGKGLEWVSGISWNSGRIGYADSVKGRFTISRDNAENSLFLQMNGLRAEDTALYYCAKGRDSFDIWGQGTMVTVSS
VL: DIQMTQSPSSVSASVGDRVTITCRASQGISSWLAWYQQKPGKAPKLLIYGASSLESGVPSRFSGSGSGTDFTLTISSLQPEDFASYYCQQANSFPYTFGQGTKLEIK
In the case of B1, the “clinical outcome in COVID-19” value (COVID-19) is listed as “mixed results in clinical studies”.
